IC50 data for 34 molecules are collected here from patent US20240025883A1, “PYRIMIDIN-2-YL SULFONAMIDE DERIVATIVES” (Hoffmann-La Roche Inc., priority 2021, published 2024).

The target of the experiment is human GPR17 short isoform (Homo sapiens (Human), UniProt Q13304). In words: GPR17 cAMP assay (hGPR17 cAMP, antagonist mode against EC80 of MDL29,951). Format: cell-based. Conditions: CHO-K1 cells stably expressing human GPR17 short isoform; EC80 of agonist MDL29,951; forskolin 15 μM. A digest of the protocol: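 CHO-K1 cells stably expressing untagged human GPR17 short isoform, 10,000/well in HBSS/10 mM HEPES/0.1% BSA pH 7.4. Compounds added with EC80 MDL29,951 and 0.5 mM IBMX, then 15 μM forskolin 5 min later, 30 min at room temperature; cAMP by TR-FRET, normalized to reference antagonist, sigmoidal fit.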
(In general: cAMP levels reflect the balance of adenylyl cyclase and phosphodiesterase activity.)

SMILES strings stand for the structures.

Sequence of human GPR17 short isoform (Q13304 29-367): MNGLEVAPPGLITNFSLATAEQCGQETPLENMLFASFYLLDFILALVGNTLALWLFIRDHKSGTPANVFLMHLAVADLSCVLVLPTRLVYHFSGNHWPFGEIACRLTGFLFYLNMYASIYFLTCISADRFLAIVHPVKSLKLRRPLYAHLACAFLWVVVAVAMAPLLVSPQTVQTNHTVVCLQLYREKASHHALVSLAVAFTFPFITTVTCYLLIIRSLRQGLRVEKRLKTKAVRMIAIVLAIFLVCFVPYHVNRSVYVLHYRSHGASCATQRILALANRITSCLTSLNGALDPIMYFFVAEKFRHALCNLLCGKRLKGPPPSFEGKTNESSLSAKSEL

As to `COc1nc(NS(=O)(=O)c2c[nH]c3nc(Cl)ccc23)nc(OC)c1OCC(F)F` [Example 206, 6-chloro-N-[5-(2,2-difluoroethoxy)-4,6-dimethoxy-pyrimidin-2-yl]-1H-pyrrolo[2,3-b]pyridine-3-sulfonamide], the IC50 is 57 nM.
To `COc1nc(NS(=O)(=O)c2c[nH]c3c(F)c(Cl)ccc23)ncc1CCC(F)F` [Example 207, 6-chloro-N-[5-(3,3-difluoropropyl)-4-methoxy-pyrimidin-2-yl]-7-fluoro-1H-indole-3-sulfonamide] belongs 14 nM.
To `COc1nc(NS(=O)(=O)c2c[nH]c3c(F)c(Cl)ccc23)nc(OC)c1OCC(F)F` [Example 208, 6-chloro-N-[5-(2,2-difluoroethoxy)-4,6-dimethoxy-pyrimidin-2-yl]-7-fluoro-1H-indole-3-sulfonamide] belongs 25 nM; to `COc1nc(NS(=O)(=O)c2c[nH]c3c(C(F)F)c(Cl)ccc23)ncc1CCC(F)F` [Example 209, 6-chloro-7-(difluoromethyl)-N-[5-(3,3-difluoropropyl)-4-methoxy-pyrimidin-2-yl]-1H-indole-3-sulfonamide], 68 nM.
Next, `COc1nc(NS(=O)(=O)c2c[nH]c3c(Cl)c(Cl)ccc23)ncc1CC(F)F` [Example 210, 6,7-dichloro-N-[5-(2,2-difluoroethyl)-4-methoxy-pyrimidin-2-yl]-1H-indole-3-sulfonamide]: 18 nM; `COc1nc(NS(=O)(=O)c2c[nH]c3c(Cl)c(Cl)ccc23)ncc1CCC(F)F` [Example 211, 6,7-dichloro-N-[5-(3,3-difluoropropyl)-4-methoxy-pyrimidin-2-yl]-1H-indole-3-sulfonamide]: 30 nM; `COc1nc(NS(=O)(=O)c2c[nH]c3c(OC4CC4)c(Cl)ccc23)ncc1CCC(F)F` [Example 212, 6-chloro-7-(cyclopropoxy)-N-[5-(3,3-difluoropropyl)-4-methoxy-pyrimidin-2-yl]-1H-indole-3-sulfonamide]: 45 nM.
`COc1nc(NS(=O)(=O)c2c[nH]c3c(F)c(Br)ccc23)ncc1OCCF` [Example 213, 6-bromo-7-fluoro-N-[5-(2-fluoroethoxy)-4-methoxy-pyrimidin-2-yl]-1h-indole-3-sulfonamide] had an IC50 of 34 nM.
Next, `COc1nc(NS(=O)(=O)c2c[nH]c3c(C(F)F)c(Cl)ccc23)ncc1CC(F)F` [Example 214, 6-chloro-N-[5-(2,2-difluoroethyl)-4-methoxy-pyrimidin-2-yl]-7-(difluoromethyl)-1H-indole-3-sulfonamide]: 38 nM; `COc1nc(NS(=O)(=O)c2c[nH]c3c(F)c(Cl)ccc23)ncc1OC(F)(F)CF` [Example 215, 6-chloro-7-fluoro-N-[4-methoxy-5-(1,1,2-trifluoroethoxy)pyrimidin-2-yl]-1H-indole-3-sulfonamide]: 28 nM.
Next, `COc1nc(NS(=O)(=O)c2c[nH]c3c(F)c(Cl)ccc23)ncc1CCC#N` [Example 216, 6-chloro-N-[5-(2-cyanoethyl)-4-methoxy-pyrimidin-2-yl]-7-fluoro-1H-indole-3-sulfonamide]: 43 nM.
To `COc1nc(NS(=O)(=O)c2c[nH]c3c(F)c(Cl)ccc23)nc(OC)c1CC(F)F` [Example 217, 6-chloro-N-[5-(2,2-difluoroethyl)-4,6-dimethoxy-pyrimidin-2-yl]-7-fluoro-1H-indole-3-sulfonamide] belongs 17 nM.
Molecule `COc1nc(NS(=O)(=O)c2c[nH]c3c(F)c(Cl)ccc23)nc(OC)c1CCC#N` [Example 218, 6-chloro-N-[5-(2-cyanoethyl)-4,6-dimethoxy-pyrimidin-2-yl]-7-fluoro-1H-indole-3-sulfonamide] showed an IC50 of 14 nM.
For the molecule `COc1nc(NS(=O)(=O)c2c[nH]c3c(F)c(Cl)ccc23)nc(OC)c1OCC#N` [Example 219, 6-chloro-N-[5-(cyanomethoxy)-4,6-dimethoxy-pyrimidin-2-yl]-7-fluoro-1H-indole-3-sulfonamide], the IC50 is 18 nM.
Next, `COc1nc(NS(=O)(=O)c2c[nH]c3nc(Cl)ccc23)ncc1OC(F)(F)CF` [Example 220, 6-chloro-N-[4-methoxy-5-(1,1,2-trifluoroethoxy)pyrimidin-2-yl]-1H-pyrrolo[2,3-b]pyridine-3-sulfonamide]: 27 nM; `COc1nc(NS(=O)(=O)c2c[nH]c3nc(Cl)ccc23)nc(OC)c1OCCF` [Example 221, 6-chloro-N-[5-(2-fluoroethoxy)-4,6-dimethoxy-pyrimidin-2-yl]-1H-pyrrolo[2,3-b]pyridine-3-sulfonamide]: 65 nM.
Next, `COc1nc(NS(=O)(=O)c2c[nH]c3c2ccc2cccnc23)ncc1CC(F)F` [Example 222, N-[5-(2,2-difluoroethyl)-4-methoxy-pyrimidin-2-yl]-1H-pyrrolo[3,2-h]quinoline-3-sulfonamide]: 291 nM; `COc1nc(NS(=O)(=O)c2c[nH]c3c(C#N)c(Cl)ccc23)ncc1CC(F)F` [Example 223, 6-chloro-7-cyano-N-[5-(2,2-difluoroethyl)-4-methoxy-pyrimidin-2-yl]-1H-indole-3-sulfonamide]: 40 nM.
Next, `COc1nc(NS(=O)(=O)c2c[nH]c3c(C#N)c(Cl)ccc23)nc(OC)c1OC(F)F` [Example 224, 6-chloro-7-cyano-N-[5-(difluoromethoxy)-4,6-dimethoxy-pyrimidin-2-yl]-1H-indole-3-sulfonamide]: 25 nM; `COc1nc(NS(=O)(=O)c2c[nH]c3c4c(ccc23)COC4)nc(OC)c1CC(F)F` [Example 229, N-[5-(2,2-difluoroethyl)-4,6-dimethoxy-pyrimidin-2-yl]-6,8-dihydro-1H-fur[3,4-g]indole-3-sulfonamide]: 27 nM.
For the molecule `COc1nc(NS(=O)(=O)c2c[nH]c3nc(Br)ccc23)ncc1OCCF` [Example 230, 6-bromo-N-[5-(2-fluoroethoxy)-4-methoxy-pyrimidin-2-yl]-1H-pyrrolo[2,3-b]pyridine-3-sulfonamide], the IC50 is 41 nM.
`COc1nc(NS(=O)(=O)c2c[nH]c3nc(Br)ccc23)ncc1OC(F)(F)CF` [Example 231, 6-bromo-N-[4-methoxy-5-(1,1,2-trifluoroethoxy)pyrimidin-2-yl]-1H-pyrrolo[2,3-b]pyridine-3-sulfonamide] had an IC50 of 21 nM.
Next, `COc1nc(NS(=O)(=O)c2c[nH]c3c(CC#N)c(Cl)ccc23)ncc1CC(F)F` [Example 232, 6-chloro-7-(cyanomethyl)-N-[5-(2,2-difluoroethyl)-4-methoxy-pyrimidin-2-yl]-1H-indole-3-sulfonamide]: 35 nM.
To `COc1nc(NS(=O)(=O)c2c[nH]c3c(C4CC4)c(Cl)ccc23)ncc1CC(F)F` [Example 233, 6-chloro-7-cyclopropyl-N-[5-(2,2-difluoroethyl)-4-methoxy-pyrimidin-2-yl]-1H-indole-3-sulfonamide] belongs 202 nM; to `COc1nc(NS(=O)(=O)c2c[nH]c3c(SC)c(Cl)ccc23)ncc1CC(F)F` [Example 234, 6-chloro-N-[5-(2,2-difluoroethyl)-4-methoxy-pyrimidin-2-yl]-7-(methylthio)-1H-indole-3-sulfonamide], 16 nM; to `COc1nc(NS(=O)(=O)c2c[nH]c3cc(C(F)F)ccc23)ncc1OCCF` [Example 235, 6-(difluoromethyl)-N-[5-(2-fluoroethoxy)-4-methoxy-pyrimidin-2-yl]-1H-indole-3-sulfonamide], 32 nM.
As for `COc1nc(NS(=O)(=O)c2c[nH]c3cc(C(F)F)ccc23)nc(OC)c1CC(F)F` [Example 236, N-[5-(2,2-difluoroethyl)-4,6-dimethoxy-pyrimidin-2-yl]-6-(difluoromethyl)-1H-indole-3-sulfonamide], the half-maximal inhibitory concentration (IC50) came to 14 nM.
Next, `COc1nc(NS(=O)(=O)c2c[nH]c3cc(C(F)F)ccc23)nc(OC)c1OCC#N` [Example 237, N-[5-(cyanomethoxy)-4,6-dimethoxy-pyrimidin-2-yl]-6-(difluoromethyl)-1H-indole-3-sulfonamide]: 34 nM; `COc1nc(NS(=O)(=O)c2c[nH]c3nc(C(F)F)ccc23)ncc1OC(F)(F)CF` [Example 238, 6-(difluoromethyl)-N-[4-methoxy-5-(1,1,2-trifluoroethoxy)pyrimidin-2-yl]-1H-pyrrolo[2,3-b]pyridine-3-sulfonamide]: 383 nM; `COc1nc(NS(=O)(=O)c2c[nH]c3nc(C(F)F)ccc23)nc(OC)c1CCC#N` [Example 239, N-[5-(2-cyanoethyl)-4,6-dimethoxy-pyrimidin-2-yl]-6-(difluoromethyl)-1H-pyrrolo[2,3-b]pyridine-3-sulfonamide]: 46 nM.
Molecule `COc1nc(NS(=O)(=O)c2c[nH]c3c(F)c(Br)ccc23)ncc1CCC#N` [Example 240, 6-bromo-N-[5-(2-cyanoethyl)-4-methoxy-pyrimidin-2-yl]-7-fluoro-1H-indole-3-sulfonamide] showed a concentration for half-maximal inhibition (IC50) of 48 nM.
`COc1nc(NS(=O)(=O)c2c[nH]c3c(F)c(Br)ccc23)nc(OC)c1OC(F)F` [Example 241, 6-bromo-N-[5-(difluoromethoxy)-4,6-dimethoxy-pyrimidin-2-yl]-7-fluoro-1H-indole-3-sulfonamide] yielded a half-maximal inhibitory concentration (IC50) of 21 nM.
As to `COc1nc(NS(=O)(=O)c2c[nH]c3c(F)c(Br)ccc23)nc(OC)c1OCC(F)F` [Example 242, 6-bromo-N-[5-(2,2-difluoroethoxy)-4,6-dimethoxy-pyrimidin-2-yl]-7-fluoro-1H-indole-3-sulfonamide], the concentration for half-maximal inhibition (IC50) is 43 nM.
To `COc1nc(NS(=O)(=O)c2c[nH]c3c(F)c(Br)ccc23)nc(OC)c1CCC#N` [Example 243, 6-bromo-N-[5-(2-cyanoethyl)-4,6-dimethoxy-pyrimidin-2-yl]-7-fluoro-1H-indole-3-sulfonamide] belongs 9 nM.

In general, IC50 refers to the concentration that inhibits the measured activity by half. Low readings indicate greater potency, high ones weaker potency.
